Test results published in patent publication US20240199616A1, “BICYCLIC COMPOUNDS AS ALLOSTERIC SHP2 INHIBITORS” (Revolution Medicines, Inc., priority 2017, published 2024).

Biological target: SHP2 (Homo sapiens (Human), UniProt Q06124)
Assay: SHP2 allosteric inhibition assay (DiFMUP prompt fluorescence)
Format: biochemical
Conditions: 0.2 nM SHP2 incubated with 0.5 μM Activating Peptide 1 or 2, 30-60 min at 25° C., surrogate substrate DiFMUP, kinetic read
Text: Without wishing to be bound by theory, SHP is allosterically activated through binding of bis-tyrosyl-phosphorylated peptides to its Src Homology 2 (SH2) domains. The latter activation step leads to the release of the auto-inhibitory interface of SHP2, which in turn renders the SHP2 protein tyrosine phosphatase (PTP) active and available for substrate recognition and reaction catalysis. The catalytic activity of SHP2 was monitored using the surrogate substrate DiFMUP in a prompt fluorescence assay format.
The phosphatase reactions were performed at room temperature in 96-well black polystyrene plate, flat bottom, non-binding surface (Corning, Cat #3650) using a final reaction volume of 100 μL and the following assay buffer conditions: 50 mM HEPES, pH 7.2, 100 mM NaCl, 0.5 mM EDTA, 0.05% P-20, 1 mM DTT.
The inhibition of SHP2 by compounds of the disclosure (concentrations varying from 0.00005-10 μM) was monitored using an assay in which 0.2 nM of SHP2 was incubated with 0.5 μM of Activating Peptide 1 (sequence: H2N-LN(pY)IDLDLV(dPEG8)LST(pY)ASINFQK-amide) or Activating Peptide 2 (sequence: H2N-LN(pY)AQLWHA(dPEG8)LTI(pY)ATIRRF-amide). […]

SHP2, sequence (Q06124 whole entry): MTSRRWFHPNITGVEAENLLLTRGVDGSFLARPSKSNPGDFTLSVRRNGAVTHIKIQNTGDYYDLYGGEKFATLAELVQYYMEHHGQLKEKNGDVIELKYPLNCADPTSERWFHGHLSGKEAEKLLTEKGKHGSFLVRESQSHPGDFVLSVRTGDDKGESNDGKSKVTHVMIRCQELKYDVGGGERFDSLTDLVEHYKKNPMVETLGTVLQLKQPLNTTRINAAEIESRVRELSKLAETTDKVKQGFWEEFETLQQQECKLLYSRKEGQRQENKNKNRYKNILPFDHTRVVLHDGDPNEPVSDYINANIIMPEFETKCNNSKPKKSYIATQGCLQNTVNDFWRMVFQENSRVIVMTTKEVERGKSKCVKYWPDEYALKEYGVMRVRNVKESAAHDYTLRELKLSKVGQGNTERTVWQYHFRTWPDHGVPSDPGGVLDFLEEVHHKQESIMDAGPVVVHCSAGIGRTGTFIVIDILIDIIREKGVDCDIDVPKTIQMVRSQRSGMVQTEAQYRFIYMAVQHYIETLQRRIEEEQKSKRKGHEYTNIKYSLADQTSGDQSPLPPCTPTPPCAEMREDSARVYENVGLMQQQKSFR

**Q.** With `Cc1nc(N2CCC3(CCC[C@H]3N)CC2)c2cncn2c1-c1cccc(Cl)c1Cl` [Compound 3, (1R)-8-[5-(2,3-dichlorophenyl)-6-methylimidazo[1,5-a]pyrazin-8-yl]-8-azaspiro[4.5]decan-1-amine] as the compound, how does the IC50 read?
**A.** Its IC50 is 34 nM.
